Source: article PMC5529018, “Discovery of novel brain permeable and G protein-biased beta-1 adrenergic receptor partial agonists for the treatment of neurocognitive disorders” (PLoS ONE, 2017)

Tests used:
[1] = target: ADR- Alpha 1A (Homo sapiens, UniProt P35348); experiment: Radioligand binding ADR Alpha 1A; settings: S2 Table; hot ligand [3H] Prazosin; read-out: Binding Affinity Ki
[2] = tested on: PBR (peripheral benzodiazepine receptor); experiment: Radioligand binding PBR; settings: S2 Table; hot ligand [3H]PK11195
[3] = target: D3 dopamine receptor (Homo sapiens, UniProt P35462); experiment: Radioligand binding D3; settings: S2 Table; hot ligand [3H]N-Methylspiperone; read-out: Binding Affinity Ki
Chain of D3 dopamine receptor (P35462 whole entry): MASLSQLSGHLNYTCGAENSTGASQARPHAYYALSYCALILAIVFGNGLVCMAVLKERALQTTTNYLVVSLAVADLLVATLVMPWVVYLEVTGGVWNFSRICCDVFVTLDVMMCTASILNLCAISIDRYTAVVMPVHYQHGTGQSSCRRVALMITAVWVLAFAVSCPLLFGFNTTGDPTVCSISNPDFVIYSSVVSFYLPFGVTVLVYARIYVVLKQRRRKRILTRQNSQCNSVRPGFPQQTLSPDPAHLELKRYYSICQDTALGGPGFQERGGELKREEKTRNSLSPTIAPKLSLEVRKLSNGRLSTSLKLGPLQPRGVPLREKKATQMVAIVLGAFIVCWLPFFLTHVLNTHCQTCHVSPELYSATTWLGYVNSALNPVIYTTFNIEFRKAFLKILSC

[4] = target: Sigma 2 receptor (Homo sapiens, UniProt Q5BJF2); experiment: Radioligand binding Sigma 2 receptor; settings: S2 Table; hot ligand [3H]DTG; read-out: Binding Affinity Ki
Chain of Sigma 2 receptor (Q5BJF2 whole entry, species assumed): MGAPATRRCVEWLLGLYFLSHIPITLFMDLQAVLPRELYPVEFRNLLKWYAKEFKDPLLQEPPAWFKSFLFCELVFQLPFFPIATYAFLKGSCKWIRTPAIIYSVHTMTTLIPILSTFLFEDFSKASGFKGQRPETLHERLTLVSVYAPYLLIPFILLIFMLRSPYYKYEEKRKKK

[5] = tested on: LPS-induced TNFα response; experiment: In vivo LPS assay; parameters: species or system C57Bl/6J mice; settings: 90 min post-LPS
Method: (§1) ; subcutaneous; […]; intraperitoneal; n = 4) or vehicle (5% DMSO/20%PEG400/water; intraperitoneal; n = 12) 15 min prior to LPS (50 ug/kg; intraperitoneal). A control group was injected with vehicle 15 minutes prior to saline (n = 18). Following injections, mice were single-housed. At 90 min post-LPS/saline, mice were deeply anesthetized with isoflurane and blood was collected from the right ventricle via cardiac puncture (23 g needle) into lithium heparin-containing vials (BD microtainer plasma tubes). Subsequently, brains were collected after perfusion with phosphate-buffered saline. Plasma was separated by centrifugation (11,000 rpm for 3 minutes) within 60 min of collection and stored at -80°C until analysis. The concentration of TNFα in the collected plasma was measured by ELISA (Invitrogen, KMC3012) according to the manufacturer’s instruction. The LPS-induced inflammatory response in the CNS was assessed by measuring mRNA expression for genes related to neuroimmune activation in brain tissue according to the previously reported method. Briefly, total RNA was extracted from hippocampus containing coronal sections using the RNeasy Lipid Tissue Mini Kit (Qiagen), and transcribed into cDNA (Superscript III, Invitrogen). PCR was performed in duplicate using TaqMan gene expression assays, TNFα (Mm00443258_m1), IL1b (Mm00434228_m1), IL6 (Mm00446190_m1), and glyceraldehyde-3-phosphate dehydrogenase (GAPDH; Mm99999915_g1). Fold changes of expression relative to control were determined after normalization to GAPDH. Relative quantification and fold change were calculated by the comparative CT method. Brain uptake of STD-101-D1 was determined in brain tissue. […]

[6] = target: Sigma 1 receptor (Homo sapiens, UniProt Q99720); experiment: Radioligand binding Sigma 1 receptor; settings: S2 Table; hot ligand [3H]Pentazocine(+); read-out: Binding Affinity Ki
Chain of Sigma 1 receptor (Q99720 whole entry, species assumed): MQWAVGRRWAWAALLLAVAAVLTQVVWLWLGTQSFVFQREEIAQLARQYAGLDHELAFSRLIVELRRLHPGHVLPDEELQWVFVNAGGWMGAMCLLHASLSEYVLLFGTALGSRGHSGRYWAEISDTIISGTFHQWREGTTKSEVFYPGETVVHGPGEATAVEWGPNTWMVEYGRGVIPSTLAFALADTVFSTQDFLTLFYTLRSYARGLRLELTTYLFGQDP

[7] = target: 5-HT1B (Homo sapiens, UniProt P28222); experiment: Radioligand binding 5-HT1B; settings: S2 Table; hot ligand [3H]GR125743; read-out: Binding Affinity Ki
Chain of 5-HT1B (P28222 whole entry, species assumed): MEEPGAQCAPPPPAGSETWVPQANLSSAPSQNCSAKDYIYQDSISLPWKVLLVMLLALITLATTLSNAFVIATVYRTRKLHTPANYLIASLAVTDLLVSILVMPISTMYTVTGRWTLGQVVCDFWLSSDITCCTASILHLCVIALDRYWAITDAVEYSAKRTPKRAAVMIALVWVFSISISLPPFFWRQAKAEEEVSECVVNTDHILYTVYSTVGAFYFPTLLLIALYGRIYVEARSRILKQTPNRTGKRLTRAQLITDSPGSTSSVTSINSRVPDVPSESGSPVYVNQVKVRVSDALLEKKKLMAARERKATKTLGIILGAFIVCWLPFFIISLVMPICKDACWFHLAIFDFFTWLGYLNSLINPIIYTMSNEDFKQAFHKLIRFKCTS

[8] = Pharmacokinetic study 1, 4-hr time course; assay type: in vivo, Sprague-Dawley rats; settings: rat; for AUCinf / Cmax: 10 mg/kg PO
From the text: (§2) Two cohorts of Sprague-Dawley rats were used in two independent studies. All animals were fasted overnight before the experiment with free access to water. In study 1, a total of 18 rats were used for a 4 hr time course pharmacokinetic (PK) study. Rats were anesthetized with 3% isoflurane and catheters were implanted into the jugular and/or portal veins for compound administration and/or blood sampling at 1 to 2 days prior to the experiments as previously described. […] Four hours post-dose, rats were deeply anesthetized with isoflurane and blood samples were collected by cardiac puncture. In study 2, a total of 18 rats were used for a 20 min post-dose collection study. […] At 20 min post-dose, rats were deeply anesthetized with isoflurane and blood samples were collected by cardiac puncture. Brains were collected after perfusion with phosphate buffered saline. All plasma samples were immediately separated after collection by centrifugation (11,000 rpm for 3 minutes) and stored at −80°C until analysis. […] Tulobuterol was used as the internal standard. The flow rate was set to 0.45 ml/min. Column temperature was 25°C. […] The injection volume was 20 μl. The mass spectrometer was operated in the positive mode with multiple-reaction monitoring (MRM). […] Mobile phase A consisted of 10 mM ammonium acetate and 0.1% formic acid in LCMS grade water. Mobile phase B consisted of 10 mM ammonium acetate and 0.1% formic acid in LCMS grade acetonitrile:water 90:10% (v/v). […] Five μl of the extracted samples were injected. […] Data acquisition and analysis were performed using the Analyst 1.6.1 software (AB SCIEX, CA).

[9] = target: 5-HT 1A (Homo sapiens, UniProt P08908); experiment: Radioligand binding 5-HT 1A; settings: S2 Table; hot ligand [3H]8-OH-DPAT; read-out: Binding Affinity Ki
Chain of 5-HT 1A (P08908 whole entry, species assumed): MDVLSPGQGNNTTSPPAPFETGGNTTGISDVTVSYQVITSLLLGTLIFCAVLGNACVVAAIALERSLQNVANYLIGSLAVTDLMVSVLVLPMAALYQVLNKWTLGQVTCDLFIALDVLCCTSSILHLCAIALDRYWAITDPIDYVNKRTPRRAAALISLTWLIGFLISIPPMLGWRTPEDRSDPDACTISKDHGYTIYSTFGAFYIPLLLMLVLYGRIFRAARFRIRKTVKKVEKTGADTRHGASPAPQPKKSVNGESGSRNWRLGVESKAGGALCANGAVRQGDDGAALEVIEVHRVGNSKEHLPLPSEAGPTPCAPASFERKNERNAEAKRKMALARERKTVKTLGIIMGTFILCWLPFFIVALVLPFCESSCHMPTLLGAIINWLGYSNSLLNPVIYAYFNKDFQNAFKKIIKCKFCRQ

[10] = target: ADR - Alpha 2B (Homo sapiens, UniProt P18089); experiment: Radioligand binding ADR Alpha 2B; settings: S2 Table; hot ligand [3H] Rauwolscine; read-out: Binding Affinity Ki
Chain of ADR - Alpha 2B (P18089 whole entry): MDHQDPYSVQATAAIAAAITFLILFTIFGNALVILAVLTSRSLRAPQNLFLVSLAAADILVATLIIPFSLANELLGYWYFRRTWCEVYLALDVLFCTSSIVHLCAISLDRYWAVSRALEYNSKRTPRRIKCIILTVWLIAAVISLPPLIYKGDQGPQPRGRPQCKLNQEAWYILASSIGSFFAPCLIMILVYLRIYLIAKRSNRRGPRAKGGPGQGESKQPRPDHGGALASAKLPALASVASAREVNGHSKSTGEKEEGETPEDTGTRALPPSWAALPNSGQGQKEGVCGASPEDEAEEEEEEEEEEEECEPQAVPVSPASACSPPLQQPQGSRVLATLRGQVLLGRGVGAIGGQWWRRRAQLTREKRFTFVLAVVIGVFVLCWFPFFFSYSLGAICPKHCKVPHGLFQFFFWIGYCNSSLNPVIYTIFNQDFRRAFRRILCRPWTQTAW

[11] = Brain uptake in the in vivo LPS study; parameters: species or system C57Bl/6J mice; settings: C57Bl/6J, mouse, ip, mice, 3 mg/kg intraperitoneal, 105 min post-dose, read-out: concentration in brain homogenates
Method: as §1, with “Briefly, total RNA was extracted from hippocampus containing coronal sections using the RNeasy Lipid Tissue Mini Kit (Qiagen), and transcribed into cDNA (Superscript III, Invitrogen). PCR was performed in duplicate using TaqMan gene expression assays, TNFα (Mm00443258_m1), IL1b (Mm00434228_m1), IL6 (Mm00446190_m1), and glyceraldehyde-3-phosphate dehydrogenase (GAPDH; Mm99999915_g1).” left out

[12] = Pharmacokinetic study 2, 20-min post-dose collection; assay type: in vivo, Sprague-Dawley rats; settings: Sprague-Dawley, brain, rat, single administration
From the text: as §2

[13] = Cardiovascular studies (heart rate, blood pressure); assay type: in vivo, Sprague-Dawley rats; settings: anesthetized rats, 3 mg/kg subcutaneous
Method: A polyethylene catheter (PE50) filled with heparinized saline was then inserted into the tail artery and connected to the blood pressure transducer system. After ensuring the absence of any air bubbles, 5–10 min of baseline systolic and diastolic blood pressure along with heart rate measurements were recorded using LabChart Pro (AD Instruments, CO).

[14] = Microsomal stability assay, mouse; assay type: in vitro ADME; settings: 0.1 uM
[15] = target: 5-HT6 (Homo sapiens, UniProt P50406); experiment: Radioligand binding 5-HT6; settings: S2 Table; hot ligand [3H]LSD; read-out: Binding Affinity Ki
Chain of 5-HT6 (P50406 whole entry, species assumed): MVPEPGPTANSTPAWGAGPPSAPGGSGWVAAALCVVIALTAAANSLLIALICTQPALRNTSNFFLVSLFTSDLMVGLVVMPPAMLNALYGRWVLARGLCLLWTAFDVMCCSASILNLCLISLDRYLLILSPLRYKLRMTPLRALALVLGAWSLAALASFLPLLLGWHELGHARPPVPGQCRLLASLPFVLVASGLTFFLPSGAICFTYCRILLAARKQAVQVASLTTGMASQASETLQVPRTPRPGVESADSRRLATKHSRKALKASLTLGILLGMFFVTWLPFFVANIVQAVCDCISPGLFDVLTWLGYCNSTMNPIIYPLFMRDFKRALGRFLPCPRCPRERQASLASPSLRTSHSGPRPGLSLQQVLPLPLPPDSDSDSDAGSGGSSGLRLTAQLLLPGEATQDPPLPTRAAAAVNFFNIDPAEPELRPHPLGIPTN

[16] = target: 5-HT 1D (Homo sapiens, UniProt P28221); experiment: Radioligand binding 5-HT 1D; settings: S2 Table; hot ligand [3H]GR125743; read-out: Binding Affinity Ki
Chain of 5-HT 1D (P28221 whole entry, species assumed): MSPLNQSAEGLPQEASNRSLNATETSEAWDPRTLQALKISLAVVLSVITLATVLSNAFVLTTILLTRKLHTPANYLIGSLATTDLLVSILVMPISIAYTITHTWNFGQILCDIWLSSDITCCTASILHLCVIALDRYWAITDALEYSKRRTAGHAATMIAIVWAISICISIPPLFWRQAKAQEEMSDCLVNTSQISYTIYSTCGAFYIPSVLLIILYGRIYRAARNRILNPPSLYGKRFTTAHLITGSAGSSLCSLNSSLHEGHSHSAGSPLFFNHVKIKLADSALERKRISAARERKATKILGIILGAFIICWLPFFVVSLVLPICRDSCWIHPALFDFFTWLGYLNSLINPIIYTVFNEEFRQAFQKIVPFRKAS

[17] = target: 5-HT 2A (Homo sapiens, UniProt P28223); experiment: Radioligand binding 5-HT 2A; settings: S2 Table; hot ligand [3H]Ketanserin; read-out: Binding Affinity Ki
Chain of 5-HT 2A (P28223 whole entry, species assumed): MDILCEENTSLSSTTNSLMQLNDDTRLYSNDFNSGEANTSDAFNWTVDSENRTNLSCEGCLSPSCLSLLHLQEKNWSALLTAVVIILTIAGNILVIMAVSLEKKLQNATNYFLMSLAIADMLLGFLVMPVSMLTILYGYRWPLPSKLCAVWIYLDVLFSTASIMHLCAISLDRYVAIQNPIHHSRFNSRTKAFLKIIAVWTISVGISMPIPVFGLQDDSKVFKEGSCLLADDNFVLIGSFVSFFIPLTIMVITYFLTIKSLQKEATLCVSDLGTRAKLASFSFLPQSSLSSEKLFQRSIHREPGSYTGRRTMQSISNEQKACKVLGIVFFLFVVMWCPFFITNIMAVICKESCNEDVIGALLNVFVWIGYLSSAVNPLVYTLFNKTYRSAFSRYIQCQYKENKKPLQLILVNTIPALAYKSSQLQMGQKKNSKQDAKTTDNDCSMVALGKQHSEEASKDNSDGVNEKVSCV

Chain of ADR- Alpha 1A (P35348 whole entry): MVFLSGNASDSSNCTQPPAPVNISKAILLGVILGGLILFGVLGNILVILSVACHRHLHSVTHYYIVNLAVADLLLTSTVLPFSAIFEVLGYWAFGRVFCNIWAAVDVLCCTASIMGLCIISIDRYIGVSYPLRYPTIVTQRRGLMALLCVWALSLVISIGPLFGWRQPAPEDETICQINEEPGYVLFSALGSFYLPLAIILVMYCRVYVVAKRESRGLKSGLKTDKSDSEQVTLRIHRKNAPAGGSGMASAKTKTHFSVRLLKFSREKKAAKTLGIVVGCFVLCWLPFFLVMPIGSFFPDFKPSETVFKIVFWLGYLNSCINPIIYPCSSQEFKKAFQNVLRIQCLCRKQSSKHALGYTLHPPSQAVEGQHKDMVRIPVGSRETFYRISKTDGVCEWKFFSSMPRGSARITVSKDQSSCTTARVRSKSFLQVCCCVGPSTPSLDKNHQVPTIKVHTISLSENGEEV

## COc1ccccc1OCCNC[C@H](O)COc1ccc(O)cc1.COc1ccccc1OCCNC[C@H](O)COc1ccc(O)cc1.O=C(O)/C=C/C(=O)O [STD-101-D1, (S)-4-(2-hydroxy-3-((2-(2-methoxyphenoxy)ethyl)amino)propoxy)phenol hemifumarate]
[1]
  Ki: 17 nM
[2]
  Binding Affinity Ki: - (< 50% inhibition of radioligand binding at 10 μM STD-101-D1)
[3]
  Ki: 47 nM
[4]
  Ki: 236 nM
[5]; 3 mg/kg pre-treatment 15 min prior to LPS
  LPS-induced systemic (plasma) TNFα response: markedly inhibited
[5]; 3 mg/kg pre-treatment
  CNS IL-1β (mRNA) after LPS: trend for attenuation
  CNS IL-6 (mRNA) after LPS: no effect
  LPS-induced inflammatory TNFα response in the brain (mRNA): attenuated
[6]
  Ki: 146 nM
[7]
  Ki: 382 nM
[8]; 10 mg/kg IP, systemic plasma
  time post-dose at which Cmax was achieved: 90 min
[8]; portal vein plasma
  AUCinf: 362 ± 367 ng·h/mL
  Cmax: 946 ± 867 ng/mL
[8]; systemic (jugular vein) plasma
  AUCinf: 101 ± 29 ng·h/mL
  Cmax: 116 ± 78 ng/mL
[9]
  Ki: 11 nM
[10]
  Ki: 337 nM
[11]
  concentration at 105 min: 130 ± 28.2 ng/g
[12]; ip, 10 mg/kg intraperitoneally
  concentration at 20 min: 288 nM
[12]; iv, 10 mg/kg intravenously
  concentration at 20 min: 2500 nM
[13]
  decrease in blood pressure: 46%
  increase in heart rate: 13%
[14]
  compound remaining after 60 min, mouse liver microsomes: 62.8%
[15]
  Ki: 1770 nM
[16]
  Ki: 149 nM
[17]
  Ki: 1240 nM
